Source: patent US20250186408A1, “TREATMENT OF PHARMACORESISTANT EPILEPSY” (Katholieke Universiteit Leuven, priority 2021, published 2025)
Like-named read-outs stand apart in the source and are kept apart here.

Experiments:
[1] = target: hERG (Homo sapiens, UniProt Q12809); assay: Ion Channel hERG Blocker; format: cell-based; settings: for Emax at 30 min: human, read-out: Max response; for IC50: read-out: RC50, result type IC50
[2] = target: T1, NET (Homo sapiens, UniProt P23975); assay: Transporter NET Blocker; format: cell-based; settings: for Emax: Transporter NET Blocker, read-out: Max response
T1 construct: Eurofins DiscoverX Corporation 87-1003DR; host or cells: unnamed cell lines
T1 sequence (P23975 whole entry): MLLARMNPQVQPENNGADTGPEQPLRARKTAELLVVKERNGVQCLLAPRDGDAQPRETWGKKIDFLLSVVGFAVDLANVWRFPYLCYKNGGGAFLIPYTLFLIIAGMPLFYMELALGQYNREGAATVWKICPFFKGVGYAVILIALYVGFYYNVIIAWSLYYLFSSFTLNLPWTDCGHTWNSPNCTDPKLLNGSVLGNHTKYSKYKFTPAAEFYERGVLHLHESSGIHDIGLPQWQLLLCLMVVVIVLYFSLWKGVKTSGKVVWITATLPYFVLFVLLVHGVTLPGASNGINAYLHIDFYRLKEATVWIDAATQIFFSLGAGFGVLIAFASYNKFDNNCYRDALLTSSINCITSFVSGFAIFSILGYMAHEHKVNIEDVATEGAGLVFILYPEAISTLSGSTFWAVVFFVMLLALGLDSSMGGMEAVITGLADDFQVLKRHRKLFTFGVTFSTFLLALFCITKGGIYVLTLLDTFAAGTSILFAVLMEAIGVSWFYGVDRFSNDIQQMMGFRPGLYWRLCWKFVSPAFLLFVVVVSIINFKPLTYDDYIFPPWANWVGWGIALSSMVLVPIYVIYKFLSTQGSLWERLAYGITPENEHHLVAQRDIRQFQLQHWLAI
Protocol: After cell plating and incubation, media was removed an 25 μL of 1× compound in 1×HBSS/0.1% BSA was added. Compounds were incubated with cells for 30 min at 37° C. After compound incubation, 25 μL of 1× dye loading buffer (1× dye, 1×HBSS/20 mM HEPES) was added to the wells. Cells were incubated for 30-60 min at 37° C. After incubation, microplates were transferred to a PerkinElmer Envision™ instrument for fluorescent signal detection. […] For blocker mode assays, percentage of inhibition was calculated using the following formula: […]

[3] = target: CNR2 (Homo sapiens, UniProt P34972); assay: cAMP CNR2 Antagonist; settings: for Emax: read-out: Max response
Chain of CNR2 (P34972 whole entry): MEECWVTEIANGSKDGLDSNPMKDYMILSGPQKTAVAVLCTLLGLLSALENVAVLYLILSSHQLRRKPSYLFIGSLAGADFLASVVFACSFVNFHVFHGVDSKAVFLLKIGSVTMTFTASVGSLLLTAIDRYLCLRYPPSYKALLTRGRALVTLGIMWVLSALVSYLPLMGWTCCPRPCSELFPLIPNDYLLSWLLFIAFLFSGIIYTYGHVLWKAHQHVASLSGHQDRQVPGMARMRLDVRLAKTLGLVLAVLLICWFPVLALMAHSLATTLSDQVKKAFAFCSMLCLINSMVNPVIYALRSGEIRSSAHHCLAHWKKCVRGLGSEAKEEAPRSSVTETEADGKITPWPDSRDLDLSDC
Protocol: (§1) In vitro pharmacological profiling of compounds was done against 78 functional assays for 47 common off-targets (30) by Eurofins DiscoverX Corporation (Fremont, CA, USA) using their SAFETYscan E/IC50 ELECT service (Cat Ref 87-1003DR, Safety47 Panel Dose Response). […] Compounds were tested in a range of 10 concentrations, following a 3-fold serial dilution, starting from 10 μM.
cAMP Hunter cell lines were expanded from freezer stocks. Prior to testing, cells were seeded in a total volume of 20 μL into white walled 384-well microplates and incubated at 37° C. cAMP modulation was determined using the DiscoverX HitHunter cAMP XS+ assay. For Gs agonist determination, cells were incubated with sample to induce response. For Gi agonist determination, cells were incubated with sample in the presence of EC80 forskolin to induce response. For both conditions, media was aspirated from cells and replaced with 15 μL 2:1 HBSS/10 mM HEPES:cAMP XS+ Ab reagent. Intermediate dilution of sample stocks was performed to generate 4× sample in assay buffer (containing 4×EC80 forskolin in the case of antagonist determination). 5 μL of 4× sample was added to cells and incubated at 37° C. or room temperature (RT) for 30 or 60 min. Final assay vehicle concentration was 1%. For antagonist determination, cells were pre-incubated with sample followed by agonist challenge at the EC80 concentration. Media was aspirated from cells and replaced with 10 μL 1:1 HBSS/HEPES:cAMP XS+ Ab reagent. 5 μL of 4× compound was added to the cells and incubated at 37° C. or RT for 30 min. 5 μL of 4×EC80 agonist was added to the cells and incubated at 37° C. or RT for 30 or 60 min. For Gi coupled GPCRs, EC80 forskolin was included. […] Microplates were read following signal generation with a PerkinElmer Envision™ instrument for chemiluminescent signal detection. Compound activity was analyzed using CBIS data analysis suite (ChemInnovation, CA). For Gs agonist mode assays, percentage activity was calculated using the following equation:

[4] = target: T2, EDNRA (Homo sapiens, UniProt P25101); assay: Calcium Flux EDNRA Antagonist; format: cell-based; settings: for IC50: read-out: RC50, result type IC50; for Emax: read-out: Max response
T2 sequence (P25101 21-427): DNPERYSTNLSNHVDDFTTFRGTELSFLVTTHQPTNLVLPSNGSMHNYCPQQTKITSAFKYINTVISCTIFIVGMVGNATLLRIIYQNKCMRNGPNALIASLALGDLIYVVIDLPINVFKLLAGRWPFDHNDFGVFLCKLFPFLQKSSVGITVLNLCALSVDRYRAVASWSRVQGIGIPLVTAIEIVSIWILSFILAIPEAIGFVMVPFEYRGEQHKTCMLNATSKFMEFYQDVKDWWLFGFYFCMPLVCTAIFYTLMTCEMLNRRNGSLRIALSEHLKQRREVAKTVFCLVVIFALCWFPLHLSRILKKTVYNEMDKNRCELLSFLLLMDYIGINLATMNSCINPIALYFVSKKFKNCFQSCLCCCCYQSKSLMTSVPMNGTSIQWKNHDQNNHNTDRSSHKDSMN
Protocol: (≤0.2% DMSO concentration). Assays were performed in 1× dye loading buffer consisting of 1× Dye (DiscoverX, Calcium No Wash^PLUS kit, Catalog No. 90-0091), 1× Additive A and 2.5 mM Probenecid in HBSS/20 mM HEPES. Probenecid was prepared fresh. Prior to testing, media was aspirated from cells and replaced with 25 μL dye loading buffer. Cells were incubated for 45 min at 37° C. and then 20 min at RT. For agonist determination, 25 μL of 2× compound in HBSS/20 mM HEPES was added using a FLIPR Tetra (MDS). […] 25 μL of 2× sample was added and cells were incubated for 30 min at RT in the dark to equilibrate plate temperature. After incubation, antagonist determination was initiated by addition of 25 μL of 1× compound with 3×EC80 agonist using FLIPR. For both agonist and antagonist formats, activity was measure on a FLIPR Tetra (MDS). Calcium mobilization was monitored for 2 min with a 5 sec baseline read.
FLIPR read—Area under the curve, was calculated for the entire 2 min read.

[5] = target: T3, HTR1A (Homo sapiens, UniProt P08908); assay: cAMP HTR1A Antagonist; settings: for Emax: read-out: Max response
T3 sequence (P08908 1-422): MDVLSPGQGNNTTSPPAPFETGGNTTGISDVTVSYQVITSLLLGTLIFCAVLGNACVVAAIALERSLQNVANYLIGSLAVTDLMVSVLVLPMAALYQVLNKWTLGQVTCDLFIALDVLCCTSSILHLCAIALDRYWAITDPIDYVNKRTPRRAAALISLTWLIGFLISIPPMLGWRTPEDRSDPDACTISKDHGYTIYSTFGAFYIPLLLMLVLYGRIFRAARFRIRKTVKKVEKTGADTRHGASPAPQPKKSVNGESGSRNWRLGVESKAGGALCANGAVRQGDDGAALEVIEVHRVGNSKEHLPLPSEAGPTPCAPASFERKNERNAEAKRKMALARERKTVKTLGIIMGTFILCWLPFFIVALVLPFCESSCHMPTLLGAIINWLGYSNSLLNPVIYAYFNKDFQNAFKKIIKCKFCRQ
Protocol: as §1
(§2) cAMP Hunter cell lines were expanded from freezer stocks. Prior to testing, cells were seeded in a total volume of 20 μL into white walled 384-well microplates and incubated at 37° C. cAMP modulation was determined using the DiscoverX HitHunter cAMP XS+ assay. For Gs agonist determination, cells were incubated with sample to induce response. For Gi agonist determination, cells were incubated with sample in the presence of EC80 forskolin to induce response. For both conditions, media was aspirated from cells and replaced with 15 μL 2:1 HBSS/10 mM HEPES:cAMP XS+ Ab reagent. Intermediate dilution of sample stocks was performed to generate 4× sample in assay buffer (containing 4×EC80 forskolin in the case of antagonist determination). 5 μL of 4× sample was added to cells and incubated at 37° C. or room temperature (RT) for 30 or 60 min. Final assay vehicle concentration was 1%. For antagonist determination, cells were pre-incubated with sample followed by agonist challenge at the EC80 concentration. Media was aspirated from cells and replaced with 10 μL 1:1 HBSS/HEPES:cAMP XS+ Ab reagent. 5 μL of 4× compound was added to the cells and incubated at 37° C. or RT for 30 min. 5 μL of 4×EC80 agonist was added to the cells and incubated at 37° C. or RT for 30 or 60 min. For Gi coupled GPCRs, EC80 forskolin was included. […] Microplates were read following signal generation with a PerkinElmer Envision™ instrument for chemiluminescent signal detection. Compound activity was analyzed using CBIS data analysis suite (ChemInnovation, CA).

[6] = target: T4, PDE3A (Homo sapiens, UniProt Q14432); assay: Enzymatic PDE3A Inhibitor; format: biochemical; settings: for IC50: read-out: RC50, result type IC50; for Emax: read-out: Max response
T4 construct: purchased Signal Chem
T4 sequence (Q14432 whole entry): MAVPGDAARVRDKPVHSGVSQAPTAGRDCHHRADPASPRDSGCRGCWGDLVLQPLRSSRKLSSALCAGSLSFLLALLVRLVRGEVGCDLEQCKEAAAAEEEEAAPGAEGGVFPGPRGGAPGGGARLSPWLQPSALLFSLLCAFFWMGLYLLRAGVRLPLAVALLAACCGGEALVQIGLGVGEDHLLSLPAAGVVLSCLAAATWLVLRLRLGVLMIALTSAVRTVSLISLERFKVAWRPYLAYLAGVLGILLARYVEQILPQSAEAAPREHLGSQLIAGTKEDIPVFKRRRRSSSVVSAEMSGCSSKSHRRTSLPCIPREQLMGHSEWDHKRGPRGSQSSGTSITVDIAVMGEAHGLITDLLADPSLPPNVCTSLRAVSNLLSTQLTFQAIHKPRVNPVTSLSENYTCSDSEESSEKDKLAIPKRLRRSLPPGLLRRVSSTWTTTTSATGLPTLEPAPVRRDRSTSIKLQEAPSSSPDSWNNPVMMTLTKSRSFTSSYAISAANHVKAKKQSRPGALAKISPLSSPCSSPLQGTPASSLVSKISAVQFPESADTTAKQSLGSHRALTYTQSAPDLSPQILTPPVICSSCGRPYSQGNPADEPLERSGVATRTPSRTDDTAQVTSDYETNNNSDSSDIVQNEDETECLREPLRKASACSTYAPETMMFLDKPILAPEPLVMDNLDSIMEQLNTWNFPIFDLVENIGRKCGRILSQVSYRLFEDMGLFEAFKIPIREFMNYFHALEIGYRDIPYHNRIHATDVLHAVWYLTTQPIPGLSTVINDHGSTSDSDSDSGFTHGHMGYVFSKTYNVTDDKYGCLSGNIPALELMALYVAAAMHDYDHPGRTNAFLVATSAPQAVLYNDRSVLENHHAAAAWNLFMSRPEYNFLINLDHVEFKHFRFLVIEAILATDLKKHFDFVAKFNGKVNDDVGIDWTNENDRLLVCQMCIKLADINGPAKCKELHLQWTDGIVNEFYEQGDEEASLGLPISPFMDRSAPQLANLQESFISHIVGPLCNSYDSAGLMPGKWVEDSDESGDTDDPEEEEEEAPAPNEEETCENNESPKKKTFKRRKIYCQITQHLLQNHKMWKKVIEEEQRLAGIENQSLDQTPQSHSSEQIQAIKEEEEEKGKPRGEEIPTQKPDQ
Protocol: Enzyme preparations were sourced from various vendors-AChE (R&D Systems), COX1 and COX2 (BPS Bioscience), MAOA (Sigma), PDE3A and PDE4D2 (Signal Chem). AChE: enzyme and test compound were pre-incubated for 15 min at RT before substrate addition. Acetylthiocholine and DTNB were added and incubated at RT for 30 min. Signal was detected by measuring absorbance at 405 nm. COX1 and COX2: enzyme stocks were diluted in assay buffer (40 mM Tris-HCl, 1×PBS, 0.5 mM Phenol, 0.01% Tween 20 and 10 nM Hematin) and allowed to equilibrate with compounds at RT for 30 min (binding incubation). Arachidonic acid (1.7 μM) and Ampliflu Red (2.5 μM) were prepared and dispended into a reaction plate. Plates were read immediately on a fluorimeter with the emission detection at 590 nm and excitation wavelength 544 nm. MAOA: enzyme and test compound were pre-incubated for 15 min at 37° C. before substrate addition. The reaction was initiated by addition of kynuramine and incubated at 37° C. for 30 min. The reaction was terminated by addition of NaOH. The amount of 4-hydroquinoline formed was determined through spectrofluorometric readout with the emission detection at 380 nm and excitation wavelength 310 nm. PDE3A and PDE4D2: enzyme and test compound were pre-incubated for 15 min at RT before substrate addition. cAMP substrate (at a concentration equal to EC80) was added and incubated at RT for 30 min. Enzyme reaction was terminated by addition of 9 mM IBMX. Signal was detected using the HitHunter® cAMP detection kit. Microplates were transferred to a PerkinElmer Envision™ instrument and read out as described for each assay. […] For enzyme activity assays, percentage inhibition was calculated using the following equation: […]

[7] = tested on: EKP-induced epileptiform discharges in zebrafish larvae; assay: Zebrafish EKP seizure model, electrophysiology (non-invasive LFP recordings, PSD analysis); format: in vivo, zebrafish (Danio rerio); settings: 7 dpf larvae; for effect on EKP-induced elevated PSD (in words): 22 h; for efficacy against EKP-induced epileptiform discharges 2 μM / efficacy against EKP-induced epileptiform discharges 10 μM: 22 h incubation, mean, normalized PSD 20-90 Hz
Protocol: Non-invasive LFP recordings were measured from the midbrain (optic tectum) of 7 dpf zebrafish larvae pre-incubated with VHC only, EKP only, or compound and EKP. […] These steps occurred at 28° C., while further manipulation and electrophysiological recordings occurred at room temperature (±21° C.) and were performed as described before (16, 27). Each recording lasted 600 seconds.
A power spectral density (PSD) analysis of the recordings was performed using MatLab R2019 software (MATrix LABoratory, USA) as described in (26). The PSD estimate of each LFP recording was summed over each 10 Hz frequency band, ranging from 0 to 160 Hz. Next, the PSD estimates were normalized against the VHC control. Data are expressed as mean±SEM PSD per larva and per condition over the 20-90 Hz region. Outliers were identified via the ROUT test (Q=1%).
PSD analysis assumes that the epileptiform activity manifests as a high-power oscillation at certain frequencies (26). Thus, if epileptic activity occurs often during the recording an elevated PSD estimate should be found at the corresponding frequency band(s) (26).

[8] = target: DRD1 (Homo sapiens, UniProt P21728); assay: cAMP DRD1 Antagonist; settings: for Emax: read-out: Max response
Chain of DRD1 (P21728 whole entry): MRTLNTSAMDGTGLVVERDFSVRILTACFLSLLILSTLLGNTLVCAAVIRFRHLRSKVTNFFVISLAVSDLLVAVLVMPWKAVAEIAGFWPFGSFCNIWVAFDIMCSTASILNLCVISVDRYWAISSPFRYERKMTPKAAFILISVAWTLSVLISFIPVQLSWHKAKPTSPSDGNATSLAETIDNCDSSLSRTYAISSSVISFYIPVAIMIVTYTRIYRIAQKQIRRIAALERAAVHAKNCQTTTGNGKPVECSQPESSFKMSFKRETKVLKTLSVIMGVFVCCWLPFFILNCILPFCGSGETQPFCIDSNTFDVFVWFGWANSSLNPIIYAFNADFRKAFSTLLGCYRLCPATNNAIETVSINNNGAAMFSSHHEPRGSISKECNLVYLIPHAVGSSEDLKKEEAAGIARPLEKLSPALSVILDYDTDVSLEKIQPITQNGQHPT
Protocol: as §1, §2

Chain of hERG (Q12809 whole entry): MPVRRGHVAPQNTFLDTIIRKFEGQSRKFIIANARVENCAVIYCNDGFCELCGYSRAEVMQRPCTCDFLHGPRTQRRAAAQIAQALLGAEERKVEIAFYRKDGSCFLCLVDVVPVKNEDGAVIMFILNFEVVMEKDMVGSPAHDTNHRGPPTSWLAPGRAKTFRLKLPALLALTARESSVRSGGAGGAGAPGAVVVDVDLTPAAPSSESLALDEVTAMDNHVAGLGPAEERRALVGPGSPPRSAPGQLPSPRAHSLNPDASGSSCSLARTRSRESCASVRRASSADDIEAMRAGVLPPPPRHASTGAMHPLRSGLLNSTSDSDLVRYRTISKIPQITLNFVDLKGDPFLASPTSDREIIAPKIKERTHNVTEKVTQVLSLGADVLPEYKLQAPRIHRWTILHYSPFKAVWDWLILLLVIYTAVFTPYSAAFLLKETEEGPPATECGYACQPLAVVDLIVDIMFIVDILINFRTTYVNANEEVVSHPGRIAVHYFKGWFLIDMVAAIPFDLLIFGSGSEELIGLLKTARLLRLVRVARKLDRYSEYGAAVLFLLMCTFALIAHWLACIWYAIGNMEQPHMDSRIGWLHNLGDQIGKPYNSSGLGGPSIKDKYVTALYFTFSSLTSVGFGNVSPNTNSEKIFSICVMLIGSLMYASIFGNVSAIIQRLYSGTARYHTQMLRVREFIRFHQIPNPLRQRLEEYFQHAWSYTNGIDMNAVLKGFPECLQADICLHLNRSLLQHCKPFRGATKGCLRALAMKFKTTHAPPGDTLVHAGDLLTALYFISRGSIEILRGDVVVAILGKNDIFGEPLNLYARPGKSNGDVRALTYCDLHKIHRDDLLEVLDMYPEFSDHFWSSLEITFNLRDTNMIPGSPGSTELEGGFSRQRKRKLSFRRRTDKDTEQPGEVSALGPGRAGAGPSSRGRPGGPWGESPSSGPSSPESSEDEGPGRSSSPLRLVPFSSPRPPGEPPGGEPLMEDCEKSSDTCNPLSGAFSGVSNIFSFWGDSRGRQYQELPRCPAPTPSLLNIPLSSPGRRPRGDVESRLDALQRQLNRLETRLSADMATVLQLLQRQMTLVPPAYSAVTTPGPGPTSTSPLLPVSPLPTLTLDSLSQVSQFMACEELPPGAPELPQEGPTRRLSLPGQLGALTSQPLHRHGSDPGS

`CC(C)(C)c1ccc(C#CC(O)c2ccccc2)cc1` (racemic) [Compound 3.3, rac-3-(4-(tert-butyl)phenyl)-1-phenylprop-2-yn-1-ol] was tested, and the Emax at 30 min [1] was 3.8%, the IC50 [1] was over 10 µM and the IC50 [2] was over 10 µM. For the same molecule, the Emax [2] was 0%, the IC50 [3] was over 10 µM and the Emax [3] was 38.3%. For the same molecule, the IC50 ([4]; Calcium Flux EDNRA Antagonist) was over 10 µM, the Emax [4] was 0% and the IC50 [5] was over 10 µM. The Emax [5] was 47.2%, the IC50 ([6]; Enzymatic PDE3A Inhibitor) was over 10 µM and the Emax [6] was 0.6%. For the same molecule, the “effect on EKP-induced elevated PSD (in words)” value (“effect” below) ([7]; 2 μM) was “remained effective”, the “efficacy against EKP-induced epileptiform discharges 2 μM” value ([7]; 2 μM) was 54% and the “effect” value ([7]; 10 μM) was “significant decrease”. The “efficacy against EKP-induced epileptiform discharges 10 μM” value ([7]; 10 μM) was 82%, the IC50 [8] was over 10 µM and the Emax [8] was 2.7%.
`Clc1cccc(C#Cc2n[nH]c3ncccc23)c1` [Compound 10.1, 3-((3-chlorophenyl)ethynyl)-1H-pyrazolo[3,4-b]pyridine] was tested, and the Emax at 30 min [1] was 6.6%, the IC50 [1] was over 10 µM and the IC50 [2] was over 10 µM. It also gave an Emax [2] of 13.6%, an IC50 [3] of over 10 µM and an Emax [3] of 0%. It also gave an Emax ([4]; Calcium Flux EDNRA Antagonist) of 0%, an IC50 ([4]; Calcium Flux EDNRA Antagonist) of over 10 µM and an IC50 [5] of over 10 µM. The Emax [5] was 0%, the Emax ([6]; Enzymatic PDE3A Inhibitor) was 0.1% and the IC50 ([6]; Enzymatic PDE3A Inhibitor) was over 10 µM. The “effect” value ([7]; 2 μM) was “did not”, the “efficacy against EKP-induced epileptiform discharges 2 μM” value ([7]; 2 μM) was −30% and the “effect” value ([7]; 10 μM) was “significant decrease”. For the same molecule, the “efficacy against EKP-induced epileptiform discharges 10 μM” value ([7]; 10 μM) was 77%, the IC50 [8] was over 10 µM and the Emax [8] was 17.2%.
